Assay results as given in publication PMC8016363, “Discovery of a Remarkable Methyl Shift Effect in the Vanilloid Activity of Triterpene Amides” (Journal of Natural Products, 2020).

Experiments:
[1] = target: T1, recombinant human TRPV1 (hTRPV1) (Homo sapiens, UniProt Q8NER1); parameters: expressed in transfected cells; method as in PMID 23932918, PMID 30496739; details: previously reported; cited from earlier work
[2] = target: T1, recombinant human TRPV1 (hTRPV1); experiment: TRPV1 channel assay: intracellular Ca2+ elevation (Fluo-4) in HEK-293 cells overexpressing hTRPV1; type: cell-based; parameters: expressed in transfected cells; host or cells: HEK-293 cells, stably transfected, selected with Geneticin

T1 sequence (Q8NER1 whole entry): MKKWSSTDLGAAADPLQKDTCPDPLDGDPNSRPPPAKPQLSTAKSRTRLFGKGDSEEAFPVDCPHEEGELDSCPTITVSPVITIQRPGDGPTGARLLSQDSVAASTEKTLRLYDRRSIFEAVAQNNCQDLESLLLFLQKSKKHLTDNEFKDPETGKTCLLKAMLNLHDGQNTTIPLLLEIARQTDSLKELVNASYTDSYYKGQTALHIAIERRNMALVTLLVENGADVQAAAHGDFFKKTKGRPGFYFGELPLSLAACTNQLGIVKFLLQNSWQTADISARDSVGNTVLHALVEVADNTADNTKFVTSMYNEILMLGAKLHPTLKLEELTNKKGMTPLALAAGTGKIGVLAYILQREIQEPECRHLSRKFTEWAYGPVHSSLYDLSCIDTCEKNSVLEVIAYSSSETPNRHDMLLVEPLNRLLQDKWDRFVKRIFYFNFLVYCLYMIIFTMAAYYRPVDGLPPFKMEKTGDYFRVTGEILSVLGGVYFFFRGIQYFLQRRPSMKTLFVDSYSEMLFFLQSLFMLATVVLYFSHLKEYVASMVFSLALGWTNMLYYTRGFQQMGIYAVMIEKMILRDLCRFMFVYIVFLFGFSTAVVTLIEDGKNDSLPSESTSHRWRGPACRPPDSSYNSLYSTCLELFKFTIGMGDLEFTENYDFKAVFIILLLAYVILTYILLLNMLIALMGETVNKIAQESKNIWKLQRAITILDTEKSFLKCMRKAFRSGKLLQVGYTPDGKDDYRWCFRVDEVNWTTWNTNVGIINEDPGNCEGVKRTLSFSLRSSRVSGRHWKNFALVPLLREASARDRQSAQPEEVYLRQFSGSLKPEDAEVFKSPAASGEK

inhibition at 25 µM ([2]; HEK293, read-out: inhibition of the capsaicin response) [%]	efficacy (relative to ionomycin 4 μM) ([2]; HEK-293 cells stably transfected with hTRPV1, [Ca2+]i increase normalized to the response to ionomycin 4 μM)	EC50 ([2]; HEK-293 cells stably transfected with hTRPV1, half-maximal increase in [Ca2+]i, read-out: potency EC50) [µM]	IC50 ([2]; read-out: IC50 (capsaicin 0.1 μM), HEK-293-hTRPV1, compound added 5 min before capsaicin 100 nM, capsaicin alone = 100%) [µM]	SMILES	behaviour at TRPV1 (in words) [1]
20 ± 3				CC1(C)CC[C@]2(C(=O)O)CC[C@]3(C)C(=CC[C@@H]4[C@@]5(C)CC[C@H](O)C(C)(C)[C@@H]5CC[C@]43C)[C@@H]2C1 [2a, oleanolic acid]	weak antagonists
				C[C@H]1[C@H](C)CC[C@]2(C(=O)O)CC[C@]3(C)C(=CC[C@@H]4[C@@]5(C)CC[C@H](O)C(C)(C)[C@@H]5CC[C@]43C)[C@H]12 [3a, ursolic acid]	weak antagonists
	16 ± 1	5.4 ± 2.3	7.5 ± 0.7	COc1cc(CNC(=O)[C@]23CC[C@@H](C)[C@H](C)[C@H]2C2=CC[C@@H]4[C@@]5(C)CC[C@H](O)C(C)(C)[C@@H]5CC[C@@]4(C)[C@]2(C)CC3)ccc1O [3b, Ursoloyl vanillamide]	
